Data on seven compounds can be found in patent US4389408A, “Novel ampicillin esters and production thereof” (priority 1980, dated 1983).

As usually defined, the LD50 is the dose expected to kill half of the subjects tested. Low readings indicate a more toxic substance, high ones a less toxic substance.

Structures are written as SMILES. Counter-ions that a name gives are not always drawn. Like-named read-outs stand apart in the source and are kept apart here. Where only a bound is given, the exact number is not on record here.

The conditions of data set [1]: cited from earlier work.
The nature of data set [2]: Concentration in blood in oral administration (blood Ampicillin level ratio). In kind it is in vivo, mice (ddy). As to the method: Each of the test compounds was orally administered in a dose of 50 mg/kg calculated as Ampicillin to four week old mice (ddy, body weight about 20 g, five per group) which had been caused to fast overnight (the amount is equivalent to 0.2 ml of a 5 mg/ml aqueous solution of Ampicillin). The blood was taken from the experimental animals periodically, and the concentration of Ampicillin in the serum was measured by a bioassay method. The blood Ampicillin level ratio was calculated from the following equation. [formula]

The nature of data set [3]: in vitro. The data set is classed as in vitro ADME. The following applies: for metabolised at 1 h / metabolised at 2 h / metabolised at 4 h / metabolised at 6 h / metabolised at 20 h: simulated gastric juice, pH 1.2. As to the method: Each of the test compounds was dissolved to a predetermined concentration in an acidic aqueous medium (simulated gastric juice) having a pH of 1.2 prepared by adding 2.0 g of sodium chloride, 24 ml of 10% hydrochloric acid and 3.2 g of pepsin to 1000 ml of water. While the solution was shaken at 37° C., it was periodically sampled. The sampled solution was subjected to high-speed liquid chromatography using a reversed phase partition column, and the hydrolysis ratio of the compound was determined from a decrease in the peak height of the compound in the chromatogram.

A short description of data set [4]: in vitro. In kind it is in vitro ADME. The conditions noted are these: for metabolised at 5 min / metabolised at 10 min / metabolised at 20 min / metabolised at 0.5 h / metabolised at 1 h: simulated intestinal juice, pH 7.5. As to the method:
The procedure of (a) was repeated except that a basic aqueous medium (simulated intestinal juice) having a pH of 7.50 prepared by adding 35.8 g of disodium phosphate, 6.0 ml of 10% hydrochloric acid and 2.8 g of pancreatin to 1000 ml of water was used instead of the acidic aqueous medium.

Data set [5] in a line: Conversion to Ampicillin in 40% mouse blood (bioautography). The following applies: 40% mouse blood in pH 7.4 phosphate buffer, 37° C., 10 minutes. The data set is classed as in vitro ADME. As to the method:
The resulting Ampicillin ester hydrochloride was incubated in 40% mouse blood in pH 7.4 phosphate buffer at 37° C. for 10 minutes, and then subjected to bioautography.

The nature of a further data set: in vivo. The conditions noted are these: mouse, mice, aqueous solution.

For the compound `CC1(C)S[C@@H]2[C@H](NC(=O)[C@H](N)c3ccccc3)C(=O)N2[C@H]1C(=O)OC1OC(=O)c2ccccc21` (stereo partly shown) [Talampicillin, Ampicillin phthalidyl ester], the “Blood Ampicillin concentrations in oral vs intramuscular administration” value in data set [1] (in vivo, po) is reported as “comparable blood Ampicillin concentrations in oral administration to those obtained by intramuscular administration”.
For `Cc1oc(=O)oc1COC(=O)[C@@H]1N2C(=O)[C@@H](NC(=O)[C@H](N)c3ccccc3)[C@H]2SC1(C)C` [A, Ampicillin (5-methyl-2-oxo-1,3-dioxolen-4-yl)methyl ester hydrochloride], the “Duration of high Ampicillin concentrations in blood” value in data set [2] is “maintained over a long period of time”. In “in vitro [3]”, this compound gave a metabolised at 1 h of 7%, a metabolised at 2 h of 15%, a metabolised at 4 h of 20% and a metabolised at 6 h of 28%. Moreover, the metabolised at 20 h in “in vitro [3]” was 52%. Also, in “in vitro [4]”, the metabolised at 5 min is 16%, the metabolised at 10 min was 32%, the metabolised at 20 min was 48% and the metabolised at 0.5 h is 65%. The same compound returned a metabolised at 1 h in “in vitro [4]” of 80%. Also, the “Conversion to Ampicillin” value in data set [5] is given as “completely converted to Ampicillin”.
Regarding `CC1(C)S[C@@H]2[C@H](NC(=O)[C@H](N)c3ccccc3)C(=O)N2[C@H]1C(=O)OC1CCCc2oc(=O)oc21` (stereo partly shown) [Ampicillin (2,3-carbonyldioxy-2-cyclohexenyl)ester hydrochloride], in data set [5], the “Conversion to Ampicillin” value is recorded as “completely converted to Ampicillin”.
As to `CC1(C)S[C@@H]2[C@H](NC(=O)[C@H](N)c3ccccc3)C(=O)N2[C@H]1C(=O)OCc1coc(=O)o1` [Ampicillin (2-oxo-1,3-dioxolen-4-yl)methyl ester hydrochloride], in data set [5], the “Conversion to Ampicillin” value is listed as “completely converted to Ampicillin”.
As to `CC1(C)S[C@@H]2[C@H](NC(=O)[C@H](N)c3ccccc3)C(=O)N2[C@H]1C(=O)OC1OC(=O)c2ccccc21` (stereo partly shown) [C, Ampicillin phthalidyl ester hydrochloride, reference compound], in “in vitro [3]”, the metabolised at 1 h is 18%, the metabolised at 2 h was 31%, the metabolised at 4 h is 43% and the metabolised at 6 h was 55%. Also, the metabolised at 20 h in “in vitro [3]” was 100%. In the data set “in vitro [4]”, the metabolised at 5 min is 39%, the metabolised at 10 min was 61%, the metabolised at 20 min is 90% and the metabolised at 0.5 h was 95%. Besides, in the data set “in vitro [4]”, the metabolised at 1 h was 100%.
With `CC(C)(C)C(=O)OCOC(=O)[C@@H]1N2C(=O)[C@@H](NC(=O)[C@H](N)c3ccccc3)[C@H]2SC1(C)C` [Pivampicillin, Ampicillin pivaloyloxymethyl ester], the “Blood Ampicillin concentrations in oral vs intramuscular administration” value in data set [1] (oral administration, British Pat. Nos. 1,215,812 and 1,364,672) is “comparable blood Ampicillin concentrations in oral administration to those obtained by intramuscular administration”.
Consider `CC1(C)S[C@@H]2[C@H](NC(=O)[C@H](N)c3ccccc3)C(=O)N2[C@H]1C(=O)OCc1oc(=O)oc1-c1ccccc1` [B, Ampicillin (2-oxo-5-phenyl-1,3-dioxolen-4-yl)methyl ester hydrochloride], for which, in data set [2], the “Duration of high Ampicillin concentrations in blood” value was “maintained over a long period of time”. Besides, in “in vitro [3]”, the “Rate of hydrolysis relative to that of Ampicillin phthalidyl ester” value is “about one half”, the metabolised at 1 h was 9%, the metabolised at 2 h was 20% and the metabolised at 4 h was 30%. In the data set “in vitro [3]”, this compound registered a metabolised at 6 h of 35% and a metabolised at 20 h of 65%. Moreover, in “in vitro [4]”, the “Rate of hydrolysis relative to that of Ampicillin phthalidyl ester” value is recorded as “about one half”, the metabolised at 5 min was 18%, the metabolised at 10 min was 37% and the metabolised at 20 min was 53%. In the data set “in vitro [4]”, this compound gave a metabolised at 0.5 h of 70% and a metabolised at 1 h of 90%. Besides, in the data set “in vivo” (intravenous), the 50% lethal dose (LD50) came to 270 mg/kg. In “in vivo” (ip, intraperitoneal), this compound came in with an LD50 of 1770 mg/kg. Further, in “in vivo” (oral), the LD50 is greater than 5000 mg/kg. The “Conversion to Ampicillin” value in data set [5] is “completely converted to Ampicillin”.
